Results: paper PMC10223284, “Category-Based Toxicokinetic Evaluations of Data-Poor Per- and Polyfluoroalkyl Substances (PFAS) using Gas Chromatography Coupled with Mass Spectrometry” (Toxics, 2023)
Values joined by “and” are separate entries in the source; they are usually repeats but may differ in a detail not shown here. Equal values may be shown once. Read-outs that look alike come from different tables or passages of the source.

Key:
[1] = test system: human plasma
[2] = Abiotic loss in negative controls of the hepatocyte clearance assay (cell-free media, metabolically inactivated hepatocytes); type: in vitro ADME
In short: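 Test compound at 1 μM incubated at 37 °C with shaking in complete William's medium E, either cell-free or with metabolically inactivated hepatocytes, then quenched with ice-cold acetonitrile for quantitative analysis.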

[3] = test system: human plasma; details: for PPB_Stab_Fail: plasma
[4] = in vitro; details: both, human, plasma
[5] = test system: human primary cells; details: cited from earlier work
[6] = test system: pooled human cryopreserved primary hepatocyte suspensions; experiment: Hepatic metabolic stability (hepatocyte clearance) assay, substrate depletion; type: in vitro ADME
In short: (§1)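 Pooled 50-donor human cryopreserved hepatocytes (50,000 cells/100 μL) incubated with 1 μM compound at 37 °C with shaking. Parent loss quantified against internal standards over time to T240 in triplicate; T½ and Clint (μL/min/million cells) from ln concentration vs time, corrected for abiotic loss in cell-free and inactivated-hepatocyte controls.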

[7] = as above; type: in vitro ADME, human; details: both sexes, human, hepatocytes
In short: as §1

[8] = In vitro-in vivo extrapolation (IVIVE) to Css and administered equivalent dose (AED); set-up: species or system human; details: for Clhep: IVIVE, hepatocyte Clint scaled to whole-liver clearance; for AED: administered equivalent dose from LOEC and Css; for Fub: fub=fup/(B:P), Fub set to 1 if needed; for CLint: scaled with HPGL 110 mill cells/g, Vl 1596 g
In short: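 Measured plasma protein binding (fup) and hepatocyte Clint served as IVIVE inputs to estimate human steady-state plasma concentration (Css). fup was converted to blood unbound fraction using blood:plasma partitioning, and Clint was scaled to whole-liver clearance (L/h). AEDs were derived by combining Css with published in vitro lowest-observed effective concentrations.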

[9] = in vitro; details: both, human, plasma; remark: listed apart in the source
[10] = test system: human plasma; details: cited from earlier work
[11] = test system: human plasma; experiment: Ultracentrifugation (UC) plasma protein binding assay, fraction unbound in plasma (fup)
[12] = test system: pooled human cryopreserved primary hepatocyte suspensions; details: cited from earlier work
[13] = Ultracentrifugation (UC) plasma protein binding assay, fraction unbound in plasma (fup); details: both, human, plasma, Mean fu, fraction unbound in human plasma, ultracentrifugation; some values based on eLOQ
[14] = test system: human plasma; experiment: Chemical stability in plasma over the UC assay time course (T5hr/T1hr)
[15] = as above; details: both, human, plasma
[16] = BioSeek lowest-observed effect concentration used for AED
[17] = minimum lowest-observed effect concentration, BioSeek platform
[18] = Assuming 1 mg/kg/day dose rate, BW 70 kg
[19] = human steady-state plasma concentration, assuming 1 mg/kg/day dosage
[20] = legacy PFAS included for comparison

In the case of `C=CC(=O)OCC(F)(F)C(F)F` [2,2,3,3-Tetrafluoropropyl acrylate], the Uncertain [1] is reported as “Y”, the Fup.Med ([1]; both, human, 5 h, 10 μM) is reported as 1.93E-08 and the Fup.point ([1]; both, human, 5 h, 10 μM) is reported as 0.234. For the same molecule, the Hep_Stab_Fail ([2]; both, human, 120 min, 1 μM) was 1, the Unstable [3] was “Y” and the Fstable.Med ([3]; both, human, 5 h, 10 μM) was 0.000712. The PPB_Stab_Fail ([3]; both, human, 5 h, 10 μM) was 1 and the remaining at 5 h, 10 μM [4] was 0%.
With `OCC(F)(F)OC(F)(F)C(F)(F)OC(F)(F)CO` [1H,1H,8H,8H-Perfluoro-3,6-dioxaoctane-1,8-diol] the “Aqueous Fraction, Run-specific Avg” value ([1]; both, human, 5 h, 10 μM) was 1857.99, the Fup.Med ([1]; both, human, 5 h, 10 μM) was 0.191 and the Fup.point ([1]; both, human, 5 h, 10 μM) was 0.207. For the same molecule, the fup ([1]; both, human, 5 h, 10 μM) was 0.2069, the LOEC [5, 16] was 7.00 µM and the LOEC [5, 17] was 7 µM. The “No Cells BkgdCl, Clearance” value ([2]; 1 μM) was 3.324, the “HT BkgdCl, Clearance” value ([2]; both, human, 1 μM) was 0 and the Hep_Stab_Fail ([2]; both, human, 120 min, 1 μM) was 0. The half-life at 1 μM ([2]; buffer) was 6.95 h, the “HT BkgdCl, Slope” value ([2]; heat treated hepatocytes control, 0 vs 240 min) was -0.0009212 and the “No Cells BkgdCl, Slope” value ([2]; no cells control, 0 vs 240 min) was -0.00166. For the same molecule, the “Linear Regression Results, Best-Fit Values, Slope” value ([6]; hepatocyte time course) was -0.003361, the Clint.1.Med ([6]; human, s9) was 0 and the half-life at 1 μM [7] was 3.44 h. It also gave a hepatocyte CLint at 1 μM ([7]; Bkgd Adj Clint) of 6.72 µL/min/1e6 cells, a hepatocyte CLint at 1 μM ([7]; Bkgd-Sub Clearance (µL/min/106 hepatocytes)) of 6.72 µL/min/1e6 cells and a hepatocyte CLint at 1 μM ([7]; Bkgd_adj_Clint) of 6.72 µL/min/1e6 cells. The hepatocyte CLint at 1 μM ([7]; In Vitro Clint) was 6.72 µL/min/1e6 cells, the hepatocyte CLint at 1 μM ([7]; Linear Regression Results, Best-Fit Values, Clearance) was 6.72 µL/min/1e6 cells and the hepatocyte CLint at 1 μM ([7]; Unadj Clint) was 6.72 µL/min/1e6 cells. For the same molecule, the hepatocyte CLint at 1 μM ([7]; Unadj in vitro Clint) was 6.72 µL/min/1e6 cells, the Css [8, 18] was 0.13 mg/L and 0.43 uM and the Clhep [8] was 20.549 L/h. It also gave an AED [8] of 16.1536 mg/kg/day, a Fub [8] of 0.3762 and a Css [8, 19] of 0.43 µM. For the same molecule, the CLint [8] was 1179763 µL/min, the “Time 1 hr, Run-specific Avg” value ([3]; both, human, 1 h, 10 μM) was 8416.46 and the Fstable.Med ([3]; both, human, 5 h, 10 μM) was 0.999. The “Mean Stability” value ([3]; both, human, 5 h, 10 μM) was 1.067, the “Stability (T5hr/ T1hr), Run-specific Avg” value ([3]; both, human, 5 h, 10 μM) was 1.023 and the “Time 5 hr, Run-specific Avg” value ([3]; both, human, 5 h, 10 μM) was 8614.09. For the same molecule, the PPB_Stab_Fail ([3]; both, human, 5 h, 10 μM) was 0, the fraction unbound at 5 h, 10 μM ([9]; Fraction Unbound (fu)) was 0.188 and the fraction unbound at 5 h, 10 μM ([9]; Fraction Unbound (fu), Run-specific Avg) was 0.21. It also gave a fraction unbound at 5 h, 10 μM ([9]; Mean Fu) of 0.207 and a fraction unbound at 5 h, 10 μM ([9]; Mean fu) of 0.207.
In the case of `N.O=C(O)C(F)(F)C(F)(F)C(F)(F)C(F)(F)C(F)(F)C(F)(F)C(F)(F)F` [Ammonium perfluorooctanoate (PFOA), Ammonium perfluorooctanoate, reference compound], the fup [10, 20] is given as 0.0006, the LOEC [5, 16] is given as 2.00 µM and the LOEC [5, 17] is given as 2 µM. The Css [8, 18] was 282.38 mg/L and 681.96 uM, the Clhep [8] was 0.003 L/h and the AED [8] was 0.0029 mg/kg/day. It also gave a Fub [8] of 0.001091, a Css [8, 19] of 681.96 µM and a Css ([8]; human steady-state plasma concentration, assuming 1 mg/kg/day dosage, listed as PFOA) of 682 µM. For the same molecule, the CLint [8] was 47401.2 µL/min, the Mean fu ([11]; fraction unbound in human plasma, used for IVIVE) was 0.0006 and the “In Vitro Clint” value [12, 20] was 0.27 μL/min/10^6 cells.
For `NS(=O)(=O)C(F)(F)C(F)(F)C(F)(F)C(F)(F)C(F)(F)C(F)(F)C(F)(F)C(F)(F)F` [Perfluorooctanesulfonamide, reference compound], the fup [10] is listed as 0.0039, the LOEC [5, 16] is listed as 2.00 µM and the LOEC [5, 17] is listed as 2 µM. For the same molecule, the hepatocyte CLint at 1 μM ([7]; in vitro CLint) was 11.9 µL/min/1e6 cells, the Css [8, 18] was 3.16 mg/L and 6.33 uM and the Clhep [8] was 0.882 L/h. For the same molecule, the AED [8] was 0.3157 mg/kg/day, the Fub [8] was 0.007091 and the Css [8, 19] was 6.33 µM. The CLint [8] was 2094431 µL/min, the fraction unbound at 5 h, 10 μM ([9]; Mean fu) was 0.0039 and the “In Vitro Clint” value [12] was 11.93 μL/min/10^6 cells.
In the case of `FC(F)C(F)(F)COCC1CO1` (centres unmarked) [((2,2,3,3-Tetrafluoropropoxy)methyl)oxirane], the Hep_Stab_Fail ([2]; flag for stability failure in hepatocyte clearance assay controls (1 or Fst = fail, 0 = pass)) is reported as 1, the Fup.Med ([11]; median fraction unbound in plasma, UC assay Level4) is reported as 0.63 and the Fup.point ([11]; point estimate of fraction unbound in plasma, UC assay Level4) is reported as 0.762. It also gave a fraction unbound at 5 h, 10 μM [13] of 0.841, a PPB_Stab_Fail ([14]; flag for stability failure in the plasma protein binding assay (1 = fail, 0 = pass)) of 0 and a Fstable.Med ([14]; median fraction stable in plasma, UC assay Level4) of 0.531. For the same molecule, the remaining at 5 h, 10 μM [15] was 66%.
